From US20230140670A1, “FORMULATIONS” (Intellia Therapeutics, Inc., priority 2017, published 2023)

System: TTR
Assay: Liver editing in mice by NGS (percent editing)
Type: in vivo, mouse
Details: CD-1 mice; 0.1 mg per kg; 7 days post dose; FIG. 7F-7G
Protocol: CD-1 female mice, ranging from 6 to 10 weeks of age were used in each study. Animals were weighed and grouped according to body weight for preparing dosing solutions based on group average weight. LNPs were dosed via the lateral tail vein in a volume of 0.2 mL per animal (approximately 10 mL per kilogram body weight). […] Body weight was measured at twenty-four hours post-administration, and animals were euthanized at various time points by exsanguination via cardiac puncture under isoflurane anesthesia. Blood was collected into serum separator tubes or into tubes containing buffered sodium citrate for plasma as described herein. […]
In brief, to quantitatively determine the efficiency of editing at the target location in the genome, genomic DNA was isolated and deep sequencing was utilized to identify the presence of insertions and deletions introduced by gene editing.
PCR primers were designed around the target site (e.g., TTR), and the genomic area of interest was amplified. […] The reads were aligned to the […] after eliminating those having low quality scores. The resulting files containing the reads were mapped to the reference genome (BAM files), where reads that overlapped the target region of interest were selected and the number of wild type reads versus the number of reads which contain an insertion, substitution, or deletion was calculated. […]

Structure (SMILES): CCCCC/C=C\C/C=C\CCCCCCCC(=O)OCC(COC(=O)CCC(OCCCCCCCC)OCCCCCCCC)COC(=O)OCCCN(CC)CC (stereo not shown) [Lipid A, (9Z,12Z)-3-((4,4-bis(octyloxy)butanoyl)oxy)-2-((((3-(diethylamino)propoxy)carbonyl)oxy)methyl) propyl octadeca-9,12-dienoate]
- potency (TTR knockdown and liver editing): highest potency
